Assay results published in patent publication US8377918B2 (ACC Therapeutics Inc, priority 2005, dated 2013).
Where two headings read alike, the source gives them in different places. Each block holds one compound with its values, some of them ahead of it.

Legend:
H460 cells = experiment: MTT cell proliferation assay, H460 lung cancer cells; assay type: cell-based, human; settings: H460, 15 μM apigenin, 24 h
Method: FIG. 17. […] A, the prostate cancer cells PC-3 and DU145; B, colon cancer cells Colo-205 and HCT-116; C, lung cancer cells A549 and H460 cells were plated at 1×10^4 cells per well in a 96 well plate in 100 μl of media. […] FIG. 18. […] A and B, the prostate cancer cells PC-3 and DU145; C, colon cancer cells Colo-205 and HCT-116; D, lung cancer cells A549 and H460 cells were plated at 1×10^4 cells per well in a 96 well plate in 100 μl of media. […] The cell proliferation was analyzed by MTT assay. […] FIG. 22. […] A, colon cancer cells Colo-205 and HCT-116; B, lung cancer cells A549 and H460 cells were plated at 1×10^4 cells per well in a 96 well plate the day before the treatment. […] Cell proliferation was examined by MTT assay. […] FIG. 25.

A2780/CP70 cells [1] = experiment: Annexin V apoptosis assay, A2780/CP70; assay type: cell-based, human; settings: A2780/CP70, 10 μM cisplatin, 24 h
Method: (§1) FIG. 1. […] (A) A2780/CP70 cells and human fibroblast GM847 cells were seeded in 96-well plate at 4×10^3 cells per well and incubated overnight. […] The cells were incubated for 24 h. Cell proliferation was determined by MTT reduction. […] Cells were trypsinized, harvested, washed once with PBS buffer, and stained using the Annexin-V-Folus Kit as per the manufacture's instructions. […] After incubation, all cells were collected and total DNA was isolated. Eight (8) μg of DNA was resolved on 1.8% agarose gel. […] (D) Treatment of GM847 cells was the same as that of 5D. […] Cleavage of caspase-3 and PARP was detected by western-blot.
FIG. 10. […] The cisplatin-resistant ovarian cancer A2780/CP70 cells were seeded in a petri dish. […] After treatment, the cells were collected and the relative cellular apoptosis was analyzed by Annexin V Kit (Roche), and compared to the control.

Colo-205 cells = experiment: MTT cell proliferation assay, Colo-205 colon cancer cells; assay type: cell-based, human; settings: colo-205, 15 μM apigenin, 24 h
Method: FIG. 17. […] A, the prostate cancer cells PC-3 and DU145; B, colon cancer cells Colo-205 and HCT-116; C, lung cancer cells A549 and H460 cells were plated at 1×10^4 cells per well in a 96 well plate in 100 μl of media. […] FIG. 20. […] A, the prostate cancer cells PC-3 and DU145; B, colon cancer cells Colo-205 and HCT-116; C, lung cancer cells A549 and H460 cells were plated at 1×10^4 cells per well in a 96 well plate. […] Cell proliferation was examined by MTT assay. […] FIG. 22. […] A, colon cancer cells Colo-205 and HCT-116; B, lung cancer cells A549 and H460 cells were plated at 1×10^4 cells per well in a 96 well plate the day before the treatment. […] Cell proliferation was examined by MTT assay. […] FIG. 24. […] The IC50 values for inhibiting cell proliferation were calculated from cell proliferation assay as described above.

A2780/CP70 cells [2] = experiment: MTT cell proliferation assay, A2780/CP70 ovarian cancer cells; assay type: cell-based, human; settings: for IC50: 24 h
Method: as §1
FIG. 3. […] A2780/CP70 cells were seeded in 96-well plates and incubated overnight. The old medium was discarded and fresh medium with cisplatin (CDDP) in the presence or absence of apigenin (Api) was added. In 24 h, the cell proliferation was determined by means of MTT reduction method.
FIG. 9. […] A, Cisplatin-resistant ovarian cancer cell line A2780/CP70, and B, prostate cancer cells PC-3 were seeded in 96-well plates at 1×10^4 cells/well and incubated overnight. […] In 24 h, the cell proliferation was assayed by using a MTT assay kit. *indicates significant difference compared to cisplatin alone (p<0.01).

PC-3 cells = experiment: MTT cell proliferation assay, PC-3 prostate cancer cells; assay type: cell-based, human
Method: (§2) FIG. 8. […] Prostate cancer cells PC-3 and DU145 were seeded in 96-well plates at 1×10^4 cells/well. […] The cell proliferation was assayed by culturing the cells for 24 h, then adding 10 μl of MTT reagent with incubation for 2 h. The reaction was stopped by adding 100 μl of solubilization solution. The relative cell proliferation was obtained by the reading at 590 nm which was recorded in a spectrophotometer, and normalized to the value of control.
FIG. 9. […] A, Cisplatin-resistant ovarian cancer cell line A2780/CP70, and B, prostate cancer cells PC-3 were seeded in 96-well plates at 1×10^4 cells/well and incubated overnight.
(§3) FIG. 17. […] A, the prostate cancer cells PC-3 and DU145; B, colon cancer cells Colo-205 and HCT-116; C, lung cancer cells A549 and H460 cells were plated at 1×10^4 cells per well in a 96 well plate in 100 μl of media.
FIG. 18. […] A and B, the prostate cancer cells PC-3 and DU145; C, colon cancer cells Colo-205 and HCT-116; D, lung cancer cells A549 and H460 cells were plated at 1×10^4 cells per well in a 96 well plate in 100 μl of media. […] The cell proliferation was analyzed by MTT assay.
(§4) FIG. 19. […] A, prostate cancer cells PC-3; and B, DU145 cells were plated at 1×10^4 cells per well in a 96 well plate in 100 μl of media. […] Cell proliferation was examined by MTT assay.
(§5) FIG. 23. […] Cell proliferation was examined by MTT assay.

[3] = tested on: tumors induced by A2780/CP70 cells; experiment: Tumor weight of A2780/CP70 tumors on CAM; assay type: in vivo, chicken embryo; settings: 2.5 μM CDDP, 10 days
Method: (§6) FIG. 4. […] The A2780/CP70 cells were seeded into 100 mm dish and grown to 90-100% confluence. […] In 10 days, the tumors were harvested and weighed. The blood vessel numbers of the tumor were counted under×100. At least five areas were determined. The data are mean±SD from two experiments (n=8). A, representative tumor morphology; B, tumor weight; C, relative numbers of blood vessels.

[4] = tested on: tumors induced by A2780/CP70 cells; experiment: Blood vessel numbers of A2780/CP70 tumors on CAM; assay type: in vivo, chicken embryo; settings: 2.5 μM CDDP alone, 10 days
Method: as §6

[5] = tested on: PC-3 prostate cancer cells; experiment: Cell survival by MTT reduction assay with taxol, PC-3; assay type: cell-based, human; settings: for IC50: Homo sapiens, 48 h, read-out: IC50 of cell viability (cell survival)
Method: (§7) FIG. 11. […] PC-3 prostate cancer cells and A2780/CP70 ovarian cancer cells were seeded in 96-well plates and incubated overnight. […] After 48 h, cell survival was determined by means of MTT reduction assay.

[6] = tested on: A2780/CP70 ovarian cancer cells; experiment: Cell survival by MTT reduction assay with taxol, A2780/CP70; assay type: cell-based, human; settings: for IC50: Homo sapiens, A2780/CP70, 48 h, 48 h, read-out: IC50 of cell viability (cell survival)
Method: as §7

DU145 cells = experiment: MTT cell proliferation assay, DU145 prostate cancer cells; assay type: cell-based, human; settings: DU145, 15 μM apigenin, 24 h
Method: as §2, §3, §4
FIG. 21. […] A, the prostate cancer cells PC-3 and DU145; B and C, colon cancer cells Colo-205 and HCT-116 were plated at 1×10^4 cells per well in a 96 well plate in 100 μl of media a day before the treatment.
as §5

SMILES: N.N.[Cl][Pt][Cl] [cisplatin]
decrease of IC50 by combination with apigenin (H460 cells): 20 fold
apoptosis (A2780/CP70 cells [1]): low levels of apoptosis
decrease of IC50 by apigenin (Colo-205 cells): 3 fold
reduction of cisplatin IC50 by apigenin (A2780/CP70 cells [2]; A2780/CP70, 10 μM apigenin): 4 fold
IC50 (A2780/CP70 cells [2]; A2780/CP70, cisplatin alone, read-out: concentration of cisplatin needed to inhibit 50% of cell proliferation (IC50)): ~20 µM
IC50 (A2780/CP70 cells [2]; A2780/CP70, with addition of 10 μM apigenin, read-out: IC50 of cisplatin for cell proliferation): 5 µM
reduction of cisplatin IC50 by apigenin (PC-3 cells; PC-3, 10 μM apigenin): 7 fold
IC50 (PC-3 cells; PC-3, in the presence of 10 μM apigenin, 24 h, read-out: cisplatin concentration giving 50% inhibition of cell proliferation): 3 µM
effect on tumor growth [3]: slightly inhibited tumor growth
effect on blood vessel formation [4]: slightly inhibited the blood vessel formation

decrease of IC50 by combination with apigenin (H460 cells): 20 fold
reduction of IC50 of doxorubicin by apigenin (PC-3 cells; PC-3, 15 μM apigenin, 24 h): 2 fold
SMILES: COc1cccc2c1C(=O)c1c(O)c3c(c(O)c1C2=O)C[C@@](O)(C(=O)CO)C[C@@H]3O[C@H]1C[C@H](N)[C@H](O)[C@H](C)O1 [doxorubicin]

SMILES: CC(=O)O[C@H]1C(=O)[C@@]2(C)[C@H]([C@H](OC(=O)c3ccccc3)[C@]3(O)C[C@H](OC(=O)[C@H](O)[C@@H](NC(=O)c4ccccc4)c4ccccc4)C(C)=C1C3(C)C)[C@]1(OC(C)=O)CO[C@@H]1C[C@@H]2O [taxol]
IC50 ([5]; PC-3, taxol alone): 0.577 µM
IC50 ([5]; PC-3, taxol with 20 μM apigenin): 0.0503 µM
taxol IC50 with apigenin, fold less than taxol alone ([5]; PC-3, 20 μM apigenin): 11 fold
taxol IC50 with apigenin, fold less than taxol alone ([6]; A2780/CP70, 20 μM apigenin): 2 fold
IC50 ([6]; A2780/CP70, taxol alone): 0.503 µM
IC50 ([6]; A2780/CP70, taxol with 20 μM apigenin): 0.225 µM

reduction of IC50 of fluorouracil by apigenin (DU145 cells): 70%
SMILES: O=c1[nH]cc(F)c(=O)[nH]1 [fluorouracil, reference compound]

SMILES: CO[C@@]12[C@H](COC(N)=O)C3=C(C(=O)C(C)=C(N)C3=O)N1C[C@@H]1N[C@@H]12 [mitomycin C]
decrease of IC50 by apigenin (Colo-205 cells): 7 fold
